# From patent US12173018B2, “Penicillin-binding protein inhibitors” (priority 2018, dated 2024)
# Columns and labels:
# [1] = system: N. gonorrhoeae ATCC 49226; assay: Liquid broth MIC, N. gonorrhoeae ATCC 49226; format: cell-based; details: Neisseria gonorrhoeae, ATCC49226; N. gonorrhoeae ATCC 49226, liquid broth; read-out: Minimum Inhibitory Concentration, N. gonorrhoeae ATCC 49226
# How it was run: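 In liquid broth, wild-type reference gonococci at 5×10^5 CFU/mL faced twofold compound dilutions for 40-42 hours (36° C, 5% CO2). The MIC was the lowest concentration with no growth seen by eye.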
# P. aeruginosa ATCC 35151 = assay: microbe, parasite or virus in culture; format: cell-based; details: Pseudomonas aeruginosa, ATCC35151; hyper-permeable P. aeruginosa ATCC 35151; read-out: MIC P. aeruginosa ATCC 35151
# How it was run: (§1)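 Visual MIC readout after 16-20 h at 37° C in CLSI-format microdilution. Compounds tested as 2-fold series against a 5×10^5 CFU/mL inoculum in cation-supplemented Mueller-Hinton broth.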
# E. coli 901C = assay: microbe, parasite or virus in culture; format: cell-based; details: Escherichia coli; hyper-permeable E. coli 901C, broth microdilution; read-out: MIC E. coli 901C
# How it was run: as §1
# E. coli AG100A = assay: microbe, parasite or virus in culture; format: cell-based; details: Escherichia coli, read-out: MIC E. coli AG100A
# How it was run: as §1
# E. coli D22 = assay: microbe, parasite or virus in culture; format: cell-based; details: Escherichia coli; hyper-permeable E. coli D22, broth microdilution; read-out: MIC E. coli D22
# How it was run: as §1
# [2] = system: P. aeruginosa (ΔmexAB-oprM); assay: microbe, parasite or virus in culture; format: cell-based; details: Pseudomonas aeruginosa, read-out: MIC P. aeruginosa ΔmexAB-OprM
# How it was run: as §1
# P. aeruginosa PAO1 = assay: Broth microdilution MIC, P. aeruginosa PAO1; format: cell-based; details: Pseudomonas aeruginosa; P. aeruginosa PAO1, broth microdilution; read-out: MIC P. aeruginosa PAO1
# How it was run: as §1
# A. baumannii ATCC 19606 = assay: Broth microdilution MIC, A. baumannii ATCC 19606; format: cell-based; details: Acinetobacter baumannii, ATCC19606; A. baumannii ATCC 19606, broth microdilution; read-out: MIC A. baumannii ATCC 19606
# How it was run: as §1
# K. pneumoniae 848844 = assay: microbe, parasite or virus in culture; format: cell-based, Klebsiella pneumoniae; details: Klebsiella pneumoniae; K. pneumoniae 848844 producing SHV-11 and KPC-2; read-out: MIC K. pneumoniae 848844
# How it was run: as §1
# E. coli AG100 = assay: Broth microdilution MIC, E. coli AG100 (wild-type parent); format: cell-based; details: Escherichia coli; wild-type parent E. coli AG100, broth microdilution; read-out: MIC E. coli AG100
# How it was run: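 Starting inoculum of 5×10^5 CFU/mL, from colonies grown 3-5 h in Mueller-Hinton broth with divalent cations, added to two-fold compound dilution series.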
Structure (SMILES),MIC [1] [mg/L],MIC (P. aeruginosa ATCC 35151) [mg/L],MIC (E. coli 901C) [mg/L],MIC (E. coli AG100A) [mg/L],MIC (E. coli D22) [mg/L],MIC [2] [mg/L],MIC (P. aeruginosa PAO1) [mg/L],MIC (A. baumannii ATCC 19606) [mg/L],MIC (K. pneumoniae 848844) [mg/L],MIC (E. coli AG100) [mg/L]
"O=C(O)c1cccc2c1OB(O)[C@@H](NC(=O)C(NC(=O)N1CCN(CCF)C(=O)C1=O)c1ccc(S(=O)(=O)NCCO)cc1)C2 (stereo partly drawn) [Example 213, (3R)-3-(2-(4-(2-fluoroethyl)-2,3-dioxopiperazine-1-carboxamido)-2-(4-(N-(2-hydroxyethyl)sulfamoyl)phenyl)acetamido)-2-hydroxy-3,4-dihydro-2H-benzo[e][1,2]oxaborinine-8-carboxylic acid]",4 to 8,2 to 4,0.5 to 1,8 to 16,2 to 4,8 to 16,> 128,> 128,> 128,32 to 64
"CCN1CCN(C(=O)NC(C(=O)N[C@H]2Cc3ccc(Cl)c(C(=O)O)c3OB2O)c2ncc(O)cc2F)C(=O)C1=O (stereo partly drawn) [Example 216, (3R)-7-chloro-3-(2-(4-ethyl-2,3-dioxopiperazine-1-carboxamido)-2-(3-fluoro-5-hydroxypyridin-2-yl)acetamido)-2-hydroxy-3,4-dihydro-2H-benzo[e][1,2]oxaborinine-8-carboxylic acid]",1 to 2,< 0.25,0.5 to 1,8 to 16,2 to 4,32 to 64,> 128,> 128,32 to 64,32 to 64
"CCN1CCN(C(=O)NC(C(=O)N[C@H]2Cc3ccc(Cl)c(C(=O)O)c3OB2O)c2ccc(O)c(O)c2Cl)C(=O)C1=O (stereo partly drawn) [Example 217, (3R)-7-chloro-3-(2-(2-chloro-3,4-dihydroxyphenyl)-2-(4-ethyl-2,3-dioxopiperazine-1-carboxamido)acetamido)-2-hydroxy-3,4-dihydro-2H-benzo[e][1,2]oxaborinine-8-carboxylic acid]",16 to 32,< 0.25,2 to 4,2 to 4,2 to 4,< 0.25,2 to 4,0.5 to 1,2 to 4,2 to 4
"CC[C@H]1CN(CC)C(=O)C(=O)N1C(=O)NC(C(=O)N[C@H]1Cc2cccc(C(=O)O)c2OB1O)c1ncc(O)cc1F (stereo partly drawn) [Example 218, (3R)-3-(2-((S)-4,6-diethyl-2,3-dioxopiperazine-1-carboxamido)-2-(3-fluoro-5-hydroxypyridin-2-yl)acetamido)-2-hydroxy-3,4-dihydro-2H-benzo[e][1,2]oxaborinine-8-carboxylic acid]",16 to 32,2 to 4,< 0.25,2 to 4,2 to 4,32 to 64,> 128,> 128,> 128,32 to 64
"C[C@H]1CN(CCO)C(=O)C(=O)N1C(=O)NC(C(=O)N[C@H]1Cc2cccc(C(=O)O)c2OB1O)c1ccc(O)c(O)c1Cl (stereo partly drawn) [Example 224, (3R)-3-(2-(2-chloro-3,4-dihydroxyphenyl)-2-((S)-4-(2-hydroxyethyl)-6-methyl-2,3-dioxopiperazine-1-carboxamido)acetamido)-2-hydroxy-3,4-dihydro-2H-benzo[e][1,2]oxaborinine-8-carboxylic acid]",> 64,< 0.25,0.5 to 1,0.5 to 1,2 to 4,0.5 to 1,8 to 16,< 0.25,2 to 4,2 to 4
"NCCN1CCN(C(=O)N[C@@H](C(=O)N[C@H]2Cc3cccc(C(=O)O)c3OB2O)c2ncc(O)cc2F)C(=O)C1=O [Example 225, (R)-3-((R)-2-(4-(2-aminoethyl)-2,3-dioxopiperazine-1-carboxamido)-2-(3-fluoro-5-hydroxypyridin-2-yl)acetamido)-2-hydroxy-3,4-dihydro-2H-benzo[e][1,2]oxaborinine-8-carboxylic acid]",16 to 32,0.5 to 1,0.5 to 1,0.5 to 1,2 to 4,2 to 4,> 128,> 128,32 to 64,8 to 16
"NCCN1CCN(C(=O)N[C@@H](C(=O)N[C@H]2Cc3ccc(F)c(C(=O)O)c3OB2O)c2ccc(O)c(O)c2Cl)C(=O)C1=O [Example 227, (R)-3-((R)-2-(4-(2-aminoethyl)-2,3-dioxopiperazine-1-carboxamido)-2-(2-chloro-3,4-dihydroxyphenyl)acetamido)-7-fluoro-2-hydroxy-3,4-dihydro-2H-benzo[e][1,2]oxaborinine-8-carboxylic acid]",4 to 8,< 0.25,< 0.25,< 0.25,0.5 to 1,< 0.25,< 0.25,< 0.25,0.5 to 1,< 0.25
"CC(=O)NCCN1CCN(C(=O)NC(C(=O)N[C@H]2Cc3cccc(C(=O)O)c3OB2O)c2ccc(O)c(O)c2Cl)C(=O)C1=O (stereo partly drawn) [Example 228, (3R)-3-(2-(4-(2-acetamidoethyl)-2,3-dioxopiperazine-1-carboxamido)-2-(2-chloro-3,4-dihydroxyphenyl)acetamido)-2-hydroxy-3,4-dihydro-2H-benzo[e][1,2]oxaborinine-8-carboxylic acid]",> 64,< 0.25,0.5 to 1,0.5 to 1,2 to 4,< 0.25,0.5 to 1,0.5 to 1,2 to 4,2 to 4
"CS(=O)(=O)NCCN1CCN(C(=O)NC(C(=O)N[C@H]2Cc3cccc(C(=O)O)c3OB2O)c2ccc(O)c(O)c2Cl)C(=O)C1=O (stereo partly drawn) [Example 229, (3R)-3-(2-(2-chloro-3,4-dihydroxyphenyl)-2-(4-(2-(methylsulfonamido)ethyl)-2,3-dioxopiperazine-1-carboxamido)acetamido)-2-hydroxy-3,4-dihydro-2H-benzo[e][1,2]oxaborinine-8-carboxylic acid]",> 64,< 0.25,0.5 to 1,0.5 to 1,2 to 4,< 0.25,2 to 4,< 0.25,2 to 4,2 to 4
"NCCN1CCN(C(=O)N[C@@H](C(=O)N[C@H]2Cc3ccc(F)c(C(=O)O)c3OB2O)c2ncc(O)cc2F)C(=O)C1=O [Example 230, (R)-3-((R)-2-(4-(2-aminoethyl)-2,3-dioxopiperazine-1-carboxamido)-2-(3-fluoro-5-hydroxypyridin-2-yl)acetamido)-7-fluoro-2-hydroxy-3,4-dihydro-2H-benzo[e][1,2]oxaborinine-8-carboxylic acid]",4 to 8,< 0.25,0.5 to 1,2 to 4,2 to 4,2 to 4,32 to 64,> 128,32 to 64,8 to 16
